Target: T1, horseradish peroxidase (Armoracia rusticana, UniProt P00433)
T1 sequence (P00433 31-353): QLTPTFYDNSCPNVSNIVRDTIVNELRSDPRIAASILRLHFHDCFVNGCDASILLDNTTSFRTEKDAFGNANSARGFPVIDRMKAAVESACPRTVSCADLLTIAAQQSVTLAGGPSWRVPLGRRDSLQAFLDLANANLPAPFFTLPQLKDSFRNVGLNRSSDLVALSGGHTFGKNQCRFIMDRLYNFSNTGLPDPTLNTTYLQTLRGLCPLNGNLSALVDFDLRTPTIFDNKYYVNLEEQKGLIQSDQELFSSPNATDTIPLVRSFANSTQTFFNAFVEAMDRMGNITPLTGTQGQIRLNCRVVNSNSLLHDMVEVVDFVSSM
Experiment: Detection of hydrogen peroxide: fluorescence of indicator compounds after adding horseradish peroxidase and hydrogen peroxide
Type: biochemical
Details: 1.0 μM compound; for Relative Fluorescence of Indicator Compounds, Fluorescence Units, 0 secs: sodium phosphate buffer pH 7.0 or 7.5, 37° C., nM of fluorescent standard 7-hydroxy-3-(N-ethylcarboxamido)coumarin giving the same light output
Protocol: A 1.0 μM, pH 7.0 or 7.5, sodium phosphate buffer solution of the dihydroquinolones and dihydrocoumarins listed in the Table below were prepared by successive dilutions with the buffer of an ethanol or DMF-ethanol solution of the appropriate compound. The solution was warmed in a 37° C. bath, then a 40 microliter (μL) of 1 mg/mL horseradish peroxidase enzyme was added in one portion. The contents of the cuvette were mixed and the fluorescence was monitored for at least 50 seconds (the quartz cell and its contents were held at a constant 37° C.). A quantity of hydrogen peroxide diluted in cold water and stored at 0° for less than eight hours was then added in an amount suitable for the desired ratio of dihydroquinolone to peroxide. The fluorescence was then monitored over a 600 second time span. Fluorescent values for compounds (5), (6), (7), (11), (16), and (17) were reported in units of concentration (nM) of the flourescent standard 7 -hydroxy-3-(N-ethylcarboxamido) coumarin (U.S. Pat. No. 4,273,715) which would be required to achieve the same fluorescence light output as the subject of study. Compound (8) is reported in photons/second. All slit widths were set at 2 nm (nanometers).
Fluorescence was measured in quartz cuvettes on an SLM 8000 spectrofluorometer (SLM Instruments, Inc. Urbana, Ill.). A Hewlett-Packard8915A computer was used to process spectra.

[1] = 25 secs, pH 7.0 or 7.5, 37° C., nM of fluorescent standard equivalent
[2] = 100 secs, pH 7.0 or 7.5, 37° C., nM of fluorescent standard equivalent
[3] = 200 secs, pH 7.0 or 7.5, 37° C., nM of fluorescent standard equivalent
[4] = 600 secs, pH 7.0 or 7.5, 37° C., nM of fluorescent standard equivalent

Structure (SMILES)	Relative Fluorescence of Indicator Compounds, Fluorescence Units, 0 secs (0 secs)	Relative Fluorescence of Indicator Compounds, Fluorescence Units, 25 secs [1]	Relative Fluorescence of Indicator Compounds, Fluorescence Units, 100 secs [2]	Relative Fluorescence of Indicator Compounds, Fluorescence Units, 200 secs [3]	Relative Fluorescence of Indicator Compounds, Fluorescence Units, 600 secs [4]	Relative Fluorescence of Indicator Compounds, Fluorescence Units, 50 secs (50 secs, pH 7.0 or 7.5, 37° C., nM of fluorescent standard equivalent)	Fluorescence Units, 0 secs (0 secs, pH 7.0 or 7.5, 37° C., excitation 400 nm, emission 450 nm)	Fluorescence Units, 25 secs (25 secs, pH 7.0 or 7.5, 37° C., excitation 400 nm, emission 450 nm)	Fluorescence Units, 50 secs (50 secs, pH 7.0 or 7.5, 37° C., excitation 400 nm, emission 450 nm)	Fluorescence Units, 100 secs (100 secs, pH 7.0 or 7.5, 37° C., excitation 400 nm, emission 450 nm)	Fluorescence Units, 200 secs (200 secs, pH 7.0 or 7.5, 37° C., excitation 400 nm, emission 450 nm)	Fluorescence Units, 600 secs (600 secs, pH 7.0 or 7.5, 37° C., excitation 400 nm, emission 450 nm)
CN(C)c1ccc2c(c1)NC(=O)C(C(=O)[O-])C2.[K+] (stereo not shown) [Compound 7, 7-Dimethylamino-3-carboxy-3,4-dihydro-2-quinolone potassium salt]	1.4 nM	12.3 nM	22.2 nM	24.3 nM	24.6 nM	–	–	–	–	–	–	–
CCOC(=O)C1Cc2ccc(N(C)C)cc2NC1=O (stereo not shown) [Compound 5, 7-Dimethylamino-3-carbethoxy-3,4-dihydro-2-quinolone]	1.4 nM	81.5 nM	101.5 nM	101.5 nM	101.25 nM	–	–	–	–	–	–	–
CCOC(=O)C1Cc2ccc(NC)cc2NC1=O (stereo not shown) [Compound 6, 7-Methylamino-3-carbethoxy-3,4-dihydro-2-quinolone]	< 0.12 nM	4.0 nM	11.0 nM	11.25 nM	10.8 nM	8.75 nM	–	–	–	–	–	–
CCNC(=O)C1Cc2ccc(N(C)C)cc2N(C)C1=O (stereo not shown) [Compound 11, 7-Dimethylamino-3-(N-ethylcarboxamido)-3,4-dihydro-1-methyl-2-quinolone]	4.3 nM	8.9 nM	101.5 nM	133.5 nM	142.5 nM	–	–	–	–	–	–	–
CCOC(=O)C1Cc2cc3c4c(c2OC1=O)CCCN4CCC3 (stereo not shown) [Compound 17, [2,3,6,7,9,10]-Hexahydro-10-carbethoxy-11-oxo-1H,5H,11H-[1]benzopyran[6,7,8-ij]quinolizine]	0.6 nM	8.8 nM	13.0 nM	25.9 nM	42.5 nM	–	–	–	–	–	–	–
CCOC(=O)C1Cc2ccc(O)cc2N(C)C1=O (stereo not shown) [Compound 16, 7-Hydroxy-3-carbethoxy-3,4-dihydro-1-methyl-2-quinolone]	1.3 nM	4.3 nM	5.7 nM	6.3 nM	6.3 nM	–	–	–	–	–	–	–
CCNC(=O)C1Cc2ccc(N(C)C)cc2NC1=O (stereo not shown) [Compound 8, 7-Dimethylamino-3-(N-ethylcarboxamido)-3,4-dihydro-2-quinolone]	–	–	–	–	–	–	< 428 photons/second	20,142 photons/second	27,000 photons/second	29,000 photons/second	30,000 photons/second	30,000 photons/second

— patent US4794079A, “Determination of hydrogen peroxide using fluorogenic dihydroquinolone and dihydrocoumarin indicators” (Miles Inc., priority 1985, dated 1988)
